According to US8012998B2, “Pyrrolidine aryl-ether as NK-3 receptor antagonists” (Hoffmann—LA Roche Inc., priority 2007, dated 2011):

These compounds were tested against T1, human NK3 receptor (Homo sapiens, UniProt P29371) (assay: [3H]SR142801 competition binding assay (hNK3 receptor binding)). Conditions: [3H]SR142801 radioligand; membranes from HEK293 cells transiently expressing recombinant human NK3 receptor; Ki by Cheng-Prussoff; read-out: KiNK3 h.
T1 construct: expressed in transfected cells; host or cells: HEK293 cells (transient expression), membrane preparation
T1 sequence (P29371 1-465): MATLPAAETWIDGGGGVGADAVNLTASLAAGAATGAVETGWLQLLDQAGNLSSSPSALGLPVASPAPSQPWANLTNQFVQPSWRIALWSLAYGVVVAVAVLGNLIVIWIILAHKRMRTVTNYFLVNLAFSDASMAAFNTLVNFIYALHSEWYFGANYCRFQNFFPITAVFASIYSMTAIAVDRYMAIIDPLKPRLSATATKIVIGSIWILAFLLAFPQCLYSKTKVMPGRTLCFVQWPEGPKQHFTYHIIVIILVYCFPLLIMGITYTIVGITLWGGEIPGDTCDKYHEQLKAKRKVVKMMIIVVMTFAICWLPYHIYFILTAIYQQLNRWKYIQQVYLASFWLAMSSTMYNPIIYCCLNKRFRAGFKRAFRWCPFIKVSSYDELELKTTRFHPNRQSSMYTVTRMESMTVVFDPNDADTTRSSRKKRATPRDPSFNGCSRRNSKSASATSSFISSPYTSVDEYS
Description: [^3H]SR^142801 Competition Binding Assay
hNK3 receptor binding experiment were performed using [^3H]SR^142801 (Catalog No. TRK1035, specific activity: 74.0 Ci/mmol, Amersham, GE Healthcare UK limited, Buckinghamshire, UK) and membrane isolated from HEK293 cells transiently expressing recombinant human NK3 receptor. After thawing, the membrane homogenates were centrifuged at 48,000×g for 10 min at 4° C., the pellets were resuspended in the 50 mM Tris-HCl, 4 mM MnCl2, 1 μM phosphoramidon, 0.1% BSA binding buffer at pH 7.4 to a final assay concentration of 5 μg protein/well. […] At the end of the incubation, membranes were filtered onto unitfilter (96-well white microplate with bonded GF/C filter preincubated 1 h in 0.3% PEI +0.3% BSA, Packard BioScience, Meriden, Conn.) with a Filtermate 196 harvester (Packard BioScience) and washed 4 times with ice-cold 50 mM Tris-HCl, pH 7.4 buffer. Nonspecific binding was measured in the presence of 10 μM SB222200 for both radioligands. The radioactivity on the filter was counted (5 min) on a Packard Top-count microplate scintillation counter with quenching correction after addition of 45 μl of microscint 40 (Canberra Packard S.A., Zutrich, Switzerland) and shaking for 1 h. Inhibition curves were fitted according to the Hill equation: y=100/(1+(x/IC50)^nH), where nH=slope factor using Excel-fit 4 software (Microsoft). IC50 values were derived from the inhibition curve and the affinity constant (Ki) values were calculated using the Cheng-Prussoff equation Ki=IC50/(1+[L]/KD) where [L] is the concentration of radioligand and KD is its dissociation constant at the receptor, derived from the saturation isotherm. All experiments were performed in duplicate and the mean ± standard error (SEM) of the individual Ki values was calculated.

Row | Ki [nM] | SMILES
1 | 19.4 | COc1ncc(C(=O)N2C[C@@H]([C@@H](C)Oc3ccc(Cl)cn3)[C@H](c3ccc(Cl)c(Cl)c3)C2)cn1 (racemic) [Example 12, [(3SR,4RS)-3-[(RS)-1-(5-Chloro-pyridin-2-yloxy)-ethyl]-4-(3,4-dichloro-phenyl)-pyrrolidin-1-yl]-(2-methoxy-pyrimidin-5-yl)-methanone]
2 | 5.8 | C[C@@H](Oc1ccc(Cl)cn1)[C@@H]1CN(C(=O)c2ccc(N(C)C)nc2)C[C@H]1c1ccc(Cl)c(Cl)c1 (racemic) [Example 19, [(3SR,4RS)-3-[(RS)-1-(5-Chloro-pyridin-2-yloxy)-ethyl]-4-(3,4-dichloro-phenyl)-pyrrolidin-1-yl]-(6-dimethylamino-pyridin-3-yl)-methanone]
3 | 28 | Cc1cc(C(=O)N2C[C@H]([C@H](CO)Oc3ccc(Cl)cn3)[C@@H](c3ccc(F)c(F)c3)C2)cnn1 [Example 116, [(3R,4S)-3-[(R)-1-(5-Chloro-pyridin-2-yloxy)-2-hydroxy-ethyl]-4-(3,4-difluoro-phenyl)-pyrrolidin-1-yl]-(6-methyl-pyridazin-4-yl)-methanone]
4 | 5 | Cc1cc(C(=O)N2C[C@H]([C@H](CO)Oc3ccc(Cl)cn3)[C@@H](c3ccc(Cl)c(Cl)c3)C2)cnn1 [Example 112, [(3R,4S)-3-[(R)-1-(5-Chloro-pyridin-2-yloxy)-2-hydroxy-ethyl]-4-(3,4-dichloro-phenyl)-pyrrolidin-1-yl]-(6-methyl-pyridazin-4-yl)-methanone]
5 | 15.6 | CC(=O)Nc1ccc(C(=O)N2C[C@@H]([C@@H](C)Oc3ccc(Cl)cn3)[C@@H](c3ccc(Cl)c(Cl)c3)C2)cn1 (racemic) [Example 38]
6 | 12.5 | C[C@@H](Oc1ccc(Cl)cn1)[C@@H]1CN(C(=O)c2ccc(S(C)(=O)=O)nc2)C[C@H]1c1ccc(Cl)c(Cl)c1 (racemic) [Example 47, [(3SR,4RS)-3-[(RS)-1-(5-Chloro-pyridin-2-yloxy)-ethyl]-4-(3,4-dichloro-phenyl)-pyrrolidin-1-yl]-(6-methanesulfonyl-pyridin-3-yl)-methanone]
7 | 7.3 | CSc1ccc(C(=O)N2C[C@@H]([C@@H](C)Oc3ccc(Cl)cn3)[C@H](c3ccc(Cl)c(Cl)c3)C2)cn1 (racemic) [Example 45, [(3SR,4RS)-3-[(RS)-1-(5-Chloro-pyridin-2-yloxy)-ethyl]-4-(3,4-dichloro-phenyl)-pyrrolidin-1-yl]-(6-methylsulfanyl-pyridin-3-yl)-methanone]
8 | 1.1 | Cc1noc(-c2ccc(C(=O)N3C[C@H]([C@H](C)Oc4ccc(C#N)cn4)[C@@H](c4ccc(Cl)c(Cl)c4)C3)cc2)n1 (racemic) [Example 60, 6-((SR)-1-{(3RS,4SR)-4-(3,4-Dichloro-phenyl)-1-[4-(3-methyl-[1,2,4]oxadiazol-5-yl)-benzoyl]-pyrrolidin-3-yl}-ethoxy)-nicotinonitrile]
9 | 2 | C[C@@H](Oc1ccc(Cl)cn1)[C@@H]1CN(C(=O)c2ccc(C#N)nc2)C[C@H]1c1ccc(Cl)c(Cl)c1 (racemic) [Example 35, 5-[(3SR,4RS)-3-[(RS)-1-(5-Chloro-pyridin-2-yloxy)-ethyl]-4-(3,4-dichloro-phenyl)-pyrrolidine-1-carbonyl]-pyridine-2-carbonitrile]
10 | 42.6 | CSc1ncc(C(=O)N2C[C@@H]([C@@H](C)Oc3ccc(Cl)cn3)[C@H](c3ccc(Cl)c(Cl)c3)C2)cn1 (racemic) [Example 48, [(3SR,4RS)-3-[(RS)-1-(5-Chloro-pyridin-2-yloxy)-ethyl]-4-(3,4-dichloro-phenyl)-pyrrolidin-1-yl]-(2-methylsulfanyl-pyrimidin-5-yl)-methanone]
11 | 6.8 | Cc1cncc(C(=O)N2C[C@H]([C@H](C)Oc3ccc(C#N)cn3)[C@@H](c3ccc(Cl)c(Cl)c3)C2)c1 (racemic) [Example 73, 6-{(SR)-1-[(3RS,4SR)-4-(3,4-Dichloro-phenyl)-1-(5-methyl-pyridine-3-carbonyl)-pyrrolidin-3-yl]-ethoxy}-nicotinonitrile]
12 | 66.4 | Cc1ncc(C(=O)N2CC(C(C)Oc3ccc(Cl)cn3)[C@H](c3ccc(Cl)c(Cl)c3)C2)cn1 (stereo in doubt) [Example 41, [(3S,4R)-3-[(R)-1-(5-Chloro-pyridin-2-yloxy)-ethyl]-4-(3,4-dichloro-phenyl)-pyrrolidin-1-yl]-(2-methyl-pyrimidin-5-yl)-methanone]
13 | 3 | Cc1cc(C(=O)N2C[C@H]([C@H](C)Oc3ccc(C(F)(F)F)cn3)[C@@H](c3ccc(Cl)cc3)C2)cnn1 [Example 119, {(3S,4R)-3-(4-Chloro-phenyl)-4-[(S)-1-(5-trifluoromethyl-pyridin-2-yloxy)-ethyl]-pyrrolidin-1-yl}-(6-methyl-pyridazin-4-yl)-methanone]
14 | 18.6 | C[C@H](Oc1ccc(C#N)cn1)[C@H]1CN(C(=O)c2cncc(F)c2)C[C@@H]1c1ccc(Cl)c(Cl)c1 (racemic) [Example 74, 6-{(SR)-1-[(3RS,4SR)-4-(3,4-Dichloro-phenyl)-1-(5-fluoro-pyridine-3-carbonyl)-pyrrolidin-3-yl]-ethoxy}-nicotinonitrile]
15 | 79.8 | COc1ccc(C(=O)N2C[C@@H]([C@@H](C)Oc3ccc(C(F)(F)F)cc3)[C@H](c3ccc(Cl)c(Cl)c3)C2)cn1 (racemic) [Example 9, {(3RS,4SR)-3-(3,4-Dichloro-phenyl)-4-[(RS)-1-(4-trifluoromethyl-phenoxy)-ethyl]-pyrrolidin-1-yl}-(6-methoxy-pyridin-3-yl)-methanone]
16 | 63.6 | Cc1ccc(C(=O)N2C[C@@H]([C@@H](C)Oc3ccc(C(F)(F)F)cc3)[C@H](c3ccc(Cl)c(Cl)c3)C2)cn1 (racemic) [Example 6, {(3RS,4SR)-3-(3,4-Dichloro-phenyl)-4-[(RS)-1-(4-trifluoromethyl-phenoxy)-ethyl]-pyrrolidin-1-yl}-(6-methyl-pyridin-3-yl)-methanone]
17 | 9.3 | C[C@@H](Oc1ccc(Cl)cn1)[C@@H]1CN(C(=O)c2ccc(CN(C)C)nc2)C[C@H]1c1ccc(Cl)c(Cl)c1 (racemic) [Example 39, [(3SR,4RS)-3-[(RS)-1-(5-Chloro-pyridin-2-yloxy)-ethyl]-4-(3,4-dichloro-phenyl)-pyrrolidin-1-yl]-(6-dimethylaminomethyl-pyridin-3-yl)-methanone]
18 | 3.7 | Cc1cc(C(=O)N2C[C@H]([C@H](C)Oc3ccc(C#N)cn3)[C@@H](c3ccc(Cl)cc3)C2)cnn1 [Example 111, 6-{(S)-1-[(3R,4S)-4-(4-Chloro-phenyl)-1-(6-methyl-pyridazine-4-carbonyl)-pyrrolidin-3-yl]-ethoxy}-nicotinonitrile]
19 | 17.7 | C#Cc1ccc(O[C@@H](C)[C@H]2CN(C(=O)c3cnnc(C)c3)C[C@@H]2c2ccc(Cl)c(Cl)c2)nc1 (racemic) [Example 110, {(3SR,4RS)-3-(3,4-Dichloro-phenyl)-4-[(SR)-1-(5-ethynyl-pyridin-2-yloxy)-ethyl]-pyrrolidin-1-yl}-(6-methyl-pyridazin-4-yl)-methanone]
20 | 64.6 | Cc1cccc(C(=O)N2C[C@H]([C@H](C)Oc3ccc(C#N)cn3)[C@@H](c3ccc(Cl)c(Cl)c3)C2)n1 (racemic) [Example 93, 6-{(SR)-1-[(3RS,4SR)-4-(3,4-Dichloro-phenyl)-1-(6-methyl-pyridine-2-carbonyl)-pyrrolidin-3-yl]-ethoxy}-nicotinonitrile]
